From article PMC10016038, “Enhanced Endosomal Signaling and Desensitization of GLP-1R vs GIPR in Pancreatic Beta Cells” (Endocrinology, 2023) come the findings set out here.

For experiment [1], the system named is calcium response in purified WT mouse islets. The experiment can be described thus: Calcium assay, WT mouse islets. In kind it is cell-based. The note with it: Cal-520 AM; 100 nM; n = 4. The protocol:
(§1) Nondiabetic mice of both sexes were used for islet isolation. Briefly, pancreata were infused via the common bile duct with RPMI-1640 medium containing 1 mg/mL collagenase from Clostridium histolyticum (Nordmark Biochemicals), dissected, and incubated in a water bath at 37 °C for 10 minutes. Islets were subsequently washed and purified using a Histopaque gradient (Histopaque-1119, 11191, Sigma-Aldrich, and Histopaque-1083, 10831, Sigma-Aldrich). Isolated islets were allowed to recover overnight at 37 °C in 5% CO2 in RPMI-1640 supplemented with 10% FBS and 1% penicillin/streptomycin. […]
Imaging of INS-1 832/3 cells or whole-islet Ca^2+ dynamics was performed as follows: cells or Matrigel-encased islets from individual animals were loaded with the Ca^2+ responsive dye Cal-520 AM (AAT Bioquest), pre-incubated for 1 hour in KRBH G6, and imaged in MatTek glass bottom dishes every 6 second at 488 nm using a Nikon Eclipse Ti microscope with an ORCA-Flash 4.0 camera (Hamamatsu) and Metamorph software (Molecular Devices) while maintained at 37 °C on a heated stage. Raw fluorescence intensity traces from cell-occupied areas or islet ROIs were extracted using Fiji. Responses were plotted relative to the average fluorescence intensity during the 6 mM glucose baseline period, before agonist addition. […]

In experiment [2] the test system is cAMP response in mouse islet beta cells. Kind of experiment: cAMP FRET assay, Pdx1-CreERT/CAMPER islets. In kind it is cell-based. To be noted: 100 nM, n = 4. The protocol: as §1
CAMPER reporter mice ([30]), with conditional expression of the cAMP fluorescence resonance energy transfer (FRET) biosensor ^TEPAC^VV ([31]), were purchased from Jackson Laboratory (Stock No: 032205) and crossed with Pdx1-Cre^ERT mice (in house) to generate mice with inducible ^TEPAC^VV expression from pancreatic beta cells, used to isolate islets for ex vivo cAMP FRET assays. […] Raw intensity traces for YFP and CFP fluorescence were extracted from whole islet ROIs using Fiji and YFP/CFP ratios calculated for each ROI and time point. Responses were plotted relative to the average fluorescence intensity per islet during the 6 mM glucose baseline period, before agonist addition. […]

The next experiment concerns GIPR-NanoLuc. Kind of experiment: KRAS-Venus bystander NanoBRET (plasma membrane), GIPR. In kind it is cell-based. The note with it: n = 5. An excerpt:
GLP-1R-NanoLuc was generated in house by polymerase chain reaction (PCR) cloning of the NanoLuciferase sequence from pcDNA3.1-ccdB-NanoLuc (a gift from Prof. Mikko Taipale; Addgene plasmid # 87067) onto the C-terminus end of the SNAP-GLP-1R vector (CisBio), followed by site-directed mutagenesis of the GLP-1R stop codon. GIPR-NanoLuc was subsequently cloned in house by exchanging the GLP-1R for the GIPR in the GLP-1R-NanoLuc construct. KRAS- and Rab5-Venus plasmids were a gift from Prof. Kevin Pfleger, University of Western Australia. The INS-1 832/3 GLP-1R KO and GIPR KO cells were seeded in 12-well plates and co-transfected with 0.2 µg KRAS-Venus and 0.1 µg GLP-1R- or GIPR-NanoLuc, respectively, or 0.5 µg Rab5-Venus and 0.1 µg GLP-1R- or GIPR-NanoLuc, respectively.
All NanoBiT and NanoBRET readings were obtained in a Flexstation 3 plate reader. Briefly, 24 hours after transfection, cells were detached, resuspended in NanoGlo Live Cell Reagent (Promega) with furimazine (1:20 dilution) and seeded into white 96-well half-area plates. […] Readings were normalized to well baseline and then to average vehicle-induced signal to establish the agonist-induced effect. AUCs from response curves were calculated for each agonist concentration and fitted to four-parameter curves using Prism 9 (GraphPad).
Figure 2. Endosomal vs plasma membrane localization of GLP-1R compared with GIPR in beta cells. […] Data are mean ± SEM, compared by paired t tests or two-way ANOVA with Sidak's test; *P < .05.
On the technique in general: Bioluminescence resonance energy transfer reports proximity on the nanometre scale.

The test system of the next experiment is SNAP-GIPR. Kind of experiment: Nb37 bystander NanoBiT, plasma membrane (CAAX), GIPR. Type of experiment: cell-based, human. The note with it: 30-minute AUC, n = 4. An excerpt:
The Nb37 assay constructs were kindly provided by Prof. Asuka Inoue, Tohoku University, Japan. Nb37 (gene synthesized by GenScript with codon optimization) was C-terminally fused to SmBiT with a 15 amino acid flexible linker ([…]), and the resulting construct referred to as Nb37-SmBiT. The C-terminal KRAS CAAX motif ([…]) was N-terminally fused with LgBiT (LgBiT-CAAX). The Endofin FYVE domain (amino acid region Gln739-Lys806) was C-terminally fused with LgBiT (Endofin-LgBiT). Gαs (human, short isoform), Gβ1 (human), Gγ2 (human), and RIC8B (human, isoform 2) plasmids were inserted into pcDNA3.1 or pCAGGS expression plasmid vectors. INS-1 832/3 GLP-1R KO or GIPR KO cells were seeded in 6-well plates and co-transfected with 0.1 μg SNAP-GLP-1R or SNAP-GIPR, 0.5 μg Gαs, Gβ1, and Gγ2, 0.1 μg RIC8B, 0.1 μg CAAX-LgBiT or 0.5 μg Endofin-LgBiT with 0.1 μg or 0.5 μg Nb37-SmBiT, respectively, with 0.8 µg pcDNA3.1 added to the former to equalize DNA content.
All NanoBiT and NanoBRET readings were obtained in a Flexstation 3 plate reader. […] Readings were normalized to well baseline and then to average vehicle-induced signal to establish the agonist-induced effect. AUCs from response curves were calculated for each agonist concentration and fitted to four-parameter curves using Prism 9 (GraphPad). […]

Entries after “also recorded” stand apart in the source; their conditions may differ.

Consider GIP(1-42), for which the “Calcium influx, GIP vs GLP-1, primary islets” value in experiment [1] was “significant increase”. Moreover, the “cAMP response, GIP compared with GLP-1, mouse islet beta cells” value in experiment [2] is recorded as “a tendency replicated in primary mouse islet beta cells; also recorded: nonsignificant tendency toward increased cAMP”. Further, in the experiment with GIPR-NanoLuc (INS-1 832/3 KO cells), the “Plasma membrane retention of GIPR compared with GLP-1R” value is on record as “increased propensity for plasma membrane retention”. In the experiment with GIPR-NanoLuc, the “Maximal internalization response (Emax), GIPR vs GLP-1R” value is “reduced maximal internalization responses” and the “Potency (logEC50), GIPR vs GLP-1R” value is listed as “no changes in potency”. For the same substance, the “Recruitment of Nb37 to active GIPRs vs GLP-1Rs within the plasma membrane” value with SNAP-GIPR is given as “no significant differences”.
